Where two headings read alike, the source gives them in different places.
Columns and labels:
Assay type in all cases: cell-based
[1] = test system: SARS-CoV-2; assay: Anti SARS-CoV-2 IC50 estimation by qRT-PCR in VeroE6 cells; conditions: Severe acute respiratory syndrome coronavirus 2, Vero C1008, 48 h
[2] = Cytotoxicity by Hoechst 33342 / Sytox orange staining; conditions: African green monkey, Vero E6 cells
Method: The assay was done in a 96 well plate format in 3 wells for each sample. 1×10e4 Vero E6 cells were plated per well and incubated at 37° C. overnight for monolayer formation. Next day, cells were incubated with the test substance (TS) at the indicated concentration with final DMSO concentration being 0.5%. The Control cells were incubated with 0.5% DMSO only. 24 and 48 hours later, cells were stained with Hoechst 33342 and Sytox orange dye. Images were taken at 10×, 16 images per well, which covers 90% of the well area using ImageXpress Microconfocal (Molecular Devices). Hoechst 33342 nucleic acid stain is a popular cell-permanent nuclear counterstain that emits blue fluorescence when bound to dsDNA. It stains all the live and dead cells. Sytox orange dye stains the nucleic acid in the cells with compromised membranes. This stain is an indicator of cell death. First, the software will count total number of cells in the Hoechst image. In the Sytox image, it will count, among Hoechst positive cells, how many cells are positive for Sytox.

[3] = test system: SARS-CoV-2; assay: Antiviral screening by qRT-PCR in VeroE6 cells

CCC(CC)COC(=O)[C@H](C)N[P@](=O)(OC[C@H]1O[C@@](C#N)(c2ccc3c(N)ncnn23)[C@H](O)[C@@H]1O)Oc1ccccc1 [Remdesivir, reference compound] gave an IC50 ([1]; read-out: IC50 value (μM) E gene) of 0.15 µM, an IC50 ([1]; read-out: IC50 value (μM) N gene) of 0.11 µM and a viability at 24 h, 10 µM ([2]; 24 hours, read-out: % Cell viability 24 hours) of 99.2%. It also gave a viability at 48 h, 10 µM ([2]; 48 hours, read-out: % Cell viability 48 hours) of 94.4%, an inhibition at 10 µM ([3]; Severe acute respiratory syndrome coronavirus 2, Vero C1008, 24 h, read-out: % inhibition of virus replication 24 hours post infection E) of 82.4% and an inhibition at 10 µM ([3]; Severe acute respiratory syndrome coronavirus 2, Vero C1008, 24 h, read-out: % inhibition of virus replication 24 hours post infection N) of 80.3%. The inhibition at 10 µM ([3]; Severe acute respiratory syndrome coronavirus 2, Vero C1008, 48 h, read-out: % inhibition of virus replication 48 hours post infection E) was 99.8% and the inhibition at 10 µM ([3]; Severe acute respiratory syndrome coronavirus 2, Vero C1008, 48 h, read-out: % inhibition of virus replication 48 hours post infection N) was 99.9%.
